{"source": "patent US9067898B1", "about": "“Isothiazole derivatives as GPR120 agonists for the treatment of type II diabetes” (Janssen Pharmaceutica NV, priority 2014, dated 2015)", "note": "pEC50: −log10 of the molar value."}
{"target": "T1, Human GPR120 short form (Homo sapiens, UniProt Q5NUL3)", "T1 construct": "expressed in transfected cells", "T1 sequence (Q5NUL3 1-361)": "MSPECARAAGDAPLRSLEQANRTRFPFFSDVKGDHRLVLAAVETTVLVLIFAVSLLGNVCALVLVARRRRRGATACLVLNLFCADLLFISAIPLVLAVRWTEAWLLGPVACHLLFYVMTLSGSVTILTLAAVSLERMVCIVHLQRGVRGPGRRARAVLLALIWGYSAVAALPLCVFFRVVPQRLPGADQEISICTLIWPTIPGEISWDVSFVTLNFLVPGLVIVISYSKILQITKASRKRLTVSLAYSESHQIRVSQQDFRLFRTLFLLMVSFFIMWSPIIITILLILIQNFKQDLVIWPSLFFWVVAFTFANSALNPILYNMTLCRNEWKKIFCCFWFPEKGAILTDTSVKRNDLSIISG", "assay": "Human GPR120 calcium flux assay (FLIPR), Procedure Calcium A", "format": "cell-based", "details": "HEK-293 cells expressing human GPR120 short form, 2500 cells/well; read-out: GPR120 Ca2+ Assay A EC50", "summary_of_the_method": "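HEK293 cells stably expressing the short isoform (NM_001195755.1), 2500/well, starved 1 h, then loaded with Fluo-4 NW plus probenecid (30 min 37 °C, 15 min RT). Compound solutions 0.012–100 μM, 0.2% DMSO final; FLIPR read 300 s after addition. EC50 from Fmax−Fmin fitted to variable-slope sigmoid (Hill <2).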"}
{"compound": "OCCCc1ccc(OCc2c(Cl)nsc2-c2ccc(Cl)cc2)c(F)c1F", "note": "[Cpd 102, 3-(4-((3-chloro-5-(4-chlorophenyl)isothiazol-4-yl)methoxy)-2,3-difluorophenyl)propan-1-ol]", "pEC50": 7.11}
{"compound": "3-(4-[[3-(4-chlorophenyl)-5-(trifluoromethyl)-1,2-thiazol-4-yl]methoxy]-3-methylphenyl)propanoic acid [Cpd 235]", "pEC50": 7.30}
{"compound": "O=C(O)CCc1cc(F)c(OCc2c(-c3ncc(Cl)cc3F)nsc2C(F)(F)F)c(F)c1", "note": "[Cpd 153, 3-(4-((3-(5-chloro-3-fluoropyridin-2-yl)-5-(trifluoromethyl)isothiazol-4-yl)methoxy)-3,5-difluorophenyl)propanoic acid]", "pEC50": 6.76}
{"compound": "O=C(O)CCc1cc(F)c(OCc2c(-c3ccc(Cl)c(F)c3)nsc2C(F)(F)F)c(F)c1F", "note": "[Cpd 138, 3-(4-((3-(4-chloro-3-fluorophenyl)-5-(trifluoromethyl)isothiazol-4-yl)methoxy)-2,3,5-trifluorophenyl)propanoic acid]", "pEC50": 6.86}
{"compound": "3-(4-[[3-(4-ethylphenyl)-5-(trifluoromethyl)-1,2-thiazol-4-yl]methoxy]-1-benzothiophen-7-yl)propanoic acid [Cpd 92]", "pEC50": 7.30}
{"compound": "CCc1ccc(-c2cc(F)sc2COc2ccc(CCC(=O)O)c(C)c2C)cc1", "note": "[Cpd 1, 3-(4-[[3-(4-ethylphenyl)-5-fluorothiophen-2-yl]methoxy]-2,3-dimethylphenyl)propanoic acid]", "pEC50": 7.62}
{"compound": "CCc1ccc(-c2nsc(C(F)(F)F)c2COc2ccc(CCC(=O)O)c(F)c2F)cc1", "note": "[Cpd 73, 3-(4-((3-(4-ethylphenyl)-5-(trifluoromethyl)isothiazol-4-yl)methoxy)-2,3-difluorophenyl)propanoic acid]", "pEC50": 7.39}
{"compound": "O=C(O)CCc1c(F)c(F)c(OCc2c(-c3ccc(Cl)cc3)nsc2C(F)(F)F)c(F)c1F", "note": "[Cpd 152, 3-(4-((3-(4-chlorophenyl)-5-(trifluoromethyl)isothiazol-4-yl)methoxy)-2,3,5,6-tetrafluorophenyl)propanoic acid]", "pEC50": 6.76}
{"compound": "Cc1c(CCC(=O)O)ccc(OCc2c(-c3ccc(Cl)cc3)nsc2C(F)(F)F)c1C", "note": "[Cpd 142, 3-(4-((3-(4-chlorophenyl)-5-(trifluoromethyl)isothiazol-4-yl)methoxy)-2,3-dimethylphenyl)propanoic acid]", "pEC50": 6.81}
{"compound": "3-(4-[[3-(4-ethylphenyl)-5-(trifluoromethyl)-1,2-thiazol-4-yl]methoxy]-3,5-difluorophenyl)propanoic acid [Cpd 70]", "pEC50": 7.52}
{"compound": "O=C(O)CCc1cc(F)c(OCc2c(-c3ccc(Cl)cc3)nsc2C(F)(F)F)c(F)c1", "note": "[Cpd 79, 3-(4-[[3-(4-chlorophenyl)-5-(trifluoromethyl)-1,2-thiazol-4-yl]methoxy]-3,5-difluorophenyl)propanoic acid]", "pEC50": 7.29}
{"compound": "OCC#Cc1cc(F)c(OCc2c(-c3ccc(Cl)cc3)nsc2C(F)(F)F)c(F)c1", "note": "[Cpd 213, 3-(4-[[3-(4-chlorophenyl)-5-(trifluoromethyl)-1,2-thiazol-4-yl]methoxy]-3,5-difluorophenyl)prop-2-yn-1-ol]", "pEC50": 6.22}
{"compound": "Cc1c(CCC(=O)O)ccc(OCc2sc(F)cc2-c2ccc(Cl)cc2)c1C", "note": "[Cpd 3, 3-(4-((3-(4-chlorophenyl)-5-fluorothiophen-2-yl)methoxy)-2,3-dimethylphenyl)propanoic acid]", "pEC50": 7.31}
{"compound": "Cc1ccccc1-c1snc(Cl)c1COc1c(F)cc(CCC(=O)O)cc1F", "note": "[Cpd 193, 3-(4-[[3-chloro-5-(2-methylphenyl)-1,2-thiazol-4-yl]methoxy]-3,5-difluorophenyl)propanoic acid]", "pEC50": 6.46}
{"compound": "CCc1ccc(-c2snc(Cl)c2COc2ccc(CCC(=O)O)c(C)c2C)cc1", "note": "[Cpd 85, 3-(4-[[3-chloro-5-(4-ethylphenyl)-1,2-thiazol-4-yl]methoxy]-2,3-dimethylphenyl)propanoic acid]", "pEC50": 7.25}
{"compound": "O=C(O)CCc1cc(F)c(OCc2c(-c3ccc(Cl)cc3F)nsc2C(F)(F)F)c(F)c1", "note": "[Cpd 74, 3-(4-((3-(4-chloro-2-fluorophenyl)-5-(trifluoromethyl)isothiazol-4-yl)methoxy)-3,5-difluorophenyl)propanoic acid]", "pEC50": 7.38}
{"compound": "Cc1c(CCC(=O)O)ccc(OCc2c(-c3ncc(Cl)cc3F)nsc2C(F)(F)F)c1C", "note": "[Cpd 180, 3-(4-((3-(5-chloro-3-fluoropyridin-2-yl)-5-(trifluoromethyl)isothiazol-4-yl)methoxy)-2,3-dimethylphenyl)propanoic acid]", "pEC50": 6.57}
{"compound": "O=C(O)CCc1cc(F)c(OCc2c(-c3ccc(Cl)c(F)c3)nsc2C(F)(F)F)c(F)c1", "note": "[Cpd 67, 3-(4-((3-(4-chloro-3-fluorophenyl)-5-(trifluoromethyl)isothiazol-4-yl)methoxy)-3,5-difluorophenyl)propanoic acid]", "pEC50": 7.60}
{"compound": "O=C(O)CCc1cc(F)c(OCc2c(C3CCCC3)nsc2C(F)(F)F)c(F)c1", "note": "[Cpd 71, 3-(4-[[3-cyclopentyl-5-(trifluoromethyl)-1,2-thiazol-4-yl]methoxy]-3,5-difluorophenyl)propanoic acid]", "pEC50": 7.43}
{"compound": "CCc1cc(CCC(=O)O)ccc1OCc1c(-c2ccc(Cl)cc2)nsc1C(F)(F)F", "note": "[Cpd 162, 3-(4-[[3-(4-chlorophenyl)-5-(trifluoromethyl)-1,2-thiazol-4-yl]methoxy]-3-ethylphenyl)propanoic acid]", "pEC50": 6.69}
{"compound": "OCCCc1cc(F)c(OCc2c(-c3ccc(Cl)cc3)nsc2C(F)(F)F)c(F)c1", "note": "[Cpd 100, 3-(4-[[3-(4-chlorophenyl)-5-(trifluoromethyl)-1,2-thiazol-4-yl]methoxy]-3,5-difluorophenyl)propan-1-ol]", "pEC50": 7.12}
{"compound": "Cc1c(CCC(=O)O)ccc(OCc2c(-c3ccccc3)nsc2C(F)(F)F)c1C", "note": "[Cpd 134, 3-(2,3-dimethyl-4-[[3-phenyl-5-(trifluoromethyl)-1,2-thiazol-4-yl]methoxy]phenyl)propanoic acid]", "pEC50": 6.88}
{"compound": "OCCCc1cc(F)c(OCc2c(-c3ccc4c(c3)OCO4)nsc2C(F)(F)F)c(F)c1", "note": "[Cpd 93, 3-(4-[[3-(2H-1,3-benzodioxol-5-yl)-5-(trifluoromethyl)-1,2-thiazol-4-yl]methoxy]-3,5-difluorophenyl)propan-1-ol]", "pEC50": 7.15}
{"compound": "OCCCc1cc(F)c(OCc2c(-c3ccc4c(c3)OCO4)csc2C(F)(F)F)c(F)c1", "note": "[Cpd 37, 3-(4-((4-(benzo[d][1,3]dioxol-5-yl)-2-(trifluoromethyl)thiophen-3-yl)methoxy)-3,5-difluorophenyl)propan-1-ol]", "pEC50": 7.03}
{"compound": "Cc1ccc(-c2nsc(C(F)(F)F)c2COc2c(F)cc(CC(C)C(=O)O)cc2F)c(F)c1", "note": "(stereo not shown) [Cpd 76, 3-(3,5-difluoro-4-[[3-(2-fluoro-4-methylphenyl)-5-(trifluoromethyl)-1,2-thiazol-4-yl]methoxy]phenyl)-2-methylpropanoic acid]", "pEC50": 7.38}
{"compound": "Cc1ccc(-c2nsc(C(F)(F)F)c2COc2c(F)cc(CCC(=O)O)cc2F)c(F)c1", "note": "[Cpd 65, 3-(3,5-difluoro-4-[[3-(2-fluoro-4-methylphenyl)-5-(trifluoromethyl)-1,2-thiazol-4-yl]methoxy]phenyl)propanoic acid]", "pEC50": 7.89}
{"compound": "O=C(O)CCc1cc(F)c(OCc2c(-c3ccc(Cl)cc3)nsc2C(F)(F)F)c(F)c1F", "note": "[Cpd 116, 3-(4-((3-(4-chlorophenyl)-5-(trifluoromethyl)isothiazol-4-yl)methoxy)-2,3,5-trifluorophenyl)propanoic acid]", "pEC50": 6.98}
{"compound": "CC(Cc1cc(F)c(OCc2c(-c3ccc(Cl)cc3)nsc2C(F)(F)F)c(F)c1)C(=O)O", "note": "(stereo not shown) [Cpd 108, 3-(4-[[3-(4-chlorophenyl)-5-(trifluoromethyl)-1,2-thiazol-4-yl]methoxy]-3,5-difluorophenyl)-2-methylpropanoic acid]", "pEC50": 7.05}
